Measurements taken from PubChem BioAssay (NCI).
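Following 48 hours of exposure in 96-well plates, responses at five concentrations were used to interpolate endpoints linearly. GI50: concentration for 50% inhibition of growth. TGI is the concentration that stops growth completely.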

Assays:
Test in all cases: NCI tumour cell line growth inhibition, 48 h
[1] = test system: SW-620 colon
[2] = test system: RPMI-8226 leukemia
[3] = test system: CAKI-1 renal
[4] = test system: OVCAR-3 ovarian
[5] = test system: MOLT-4 leukemia
[6] = test system: HCT-15 colon
[7] = test system: HOP-92 NSCLC
[8] = test system: MDA-MB-231 breast
[9] = test system: HOP-62 NSCLC
[10] = test system: MCF7 breast

SMILES | GI50 [1] [µM] | TGI [1] [µM] | GI50 [2] [µM] | TGI [2] [µM] | GI50 [3] [µM] | TGI [3] [µM] | GI50 [4] [µM] | TGI [4] [µM] | GI50 [5] [µM] | GI50 [6] [µM] | TGI [6] [µM] | GI50 [7] [µM] | TGI [7] [µM] | GI50 [8] [µM] | TGI [8] [µM] | GI50 [9] [µM] | TGI [9] [µM] | GI50 [10] [µM] | TGI [10] [µM] | TGI [5] [µM]
OCc1cccc(-c2ccc3ncc(-c4nc(NC5CC5)ncc4F)n3c2)c1 | 0.258 | 0.971 | 0.22 | 0.788 | 0.153 | 1.65 | 0.27 | 1.09 | 0.266 | 0.267 | 1.39 | 0.303 | 0.901 | 0.286 | 1.04 | 0.266 | 2.7 | 0.308 | 1.19 | 
COc1cc([C@@H]2c3cc4c(cc3C(Br)[C@H]3COC(=O)[C@H]23)OCO4)cc(OC)c1OC (stereo partly drawn) | 0.194 | > 100 | 0.507 | > 100 | 0.117 | > 48.4 | 0.213 | 0.559 | 0.431 | 0.253 | > 100 | 0.529 | > 30.1 | 0.296 |  | 0.436 | > 100 | 0.168 | > 100 | > 100
CCCCCCOc1ccc(/C=N/NC(N)=S)cc1 | 1.99 | 20.5 | 1.36 | 4.41 | 1.57 | 5.71 | 1.97 | 6.6 | 0.432 | 2.69 | > 100 | 2.39 | 27.4 | 1.67 | 17.1 | 60.1 | > 100 | 6.74 | 34.3 | 5.26
C[C@]12CC/C(=N\N)C[C@@H]1CC[C@@H]1[C@@H]2CC[C@]2(C)/C(=N/N)CC[C@@H]12 | > 100 | > 100 | > 100 | > 100 | > 100 | > 100 | > 100 | > 100 | > 100 | > 100 | > 100 | > 100 | > 100 | > 100 | > 100 | > 100 | > 100 | > 100 | > 100 | > 100
N#Cc1cccc(C(=O)c2cnn(-c3ccc(F)cc3)c2N)c1 | > 25 | > 25 | > 25 | > 25 | > 25 | > 25 | > 25 | > 25 | > 25 | > 25 | > 25 | > 25 | > 25 | > 25 | > 25 | > 17.2 | > 25 | > 25 | > 25 | > 25
Cc1cc(=O)c2cc(N=Cc3ccc([N+](=O)[O-])o3)ccc2o1 |  | > 100 |  | > 100 |  | > 100 |  | > 100 |  |  | > 100 |  | > 100 |  | > 100 |  | > 100 |  | > 100 | > 100
CCON=C1C(C)(C)C(C)(C)C(C)(C)C1(C)C |  | > 100 |  | > 100 |  | > 100 |  | > 100 |  |  | > 100 |  | > 100 |  | > 100 |  | > 100 |  | > 100 | > 100
O=c1[nH]cnc2c1nnn2C1OC(CO)C(O)C1O (stereo not drawn) | 1.69 | > 100 | 1.33 | 21.5 | 0.735 | > 45.1 | 0.816 | 4.98 | 2.44 | 1.21 | > 100 | 1.66 | > 100 | 4.49 | > 100 | 2.67 | > 100 | 1.41 | > 78.8 | > 100
N#Cc1c2ccccc2c2n1-c1ccccc1OC(c1ccccc1)C2=O (stereo not drawn) | 3.9 | 16.7 | 2.75 | 9.07 | 3.16 | 13.7 | 5.1 | 49.7 | 4.47 | 3.12 | 12.5 | 2.01 | 5.88 | 2.78 | 8.99 | 3.84 | 15.8 | 3.8 | 14.6 | 19.6
O=[N+]([O-])c1cc(O)c(O)cc1-c1cn2ccsc2n1 | 45.6 | > 100 | 54.6 | > 100 | 38.4 | > 100 | 23.6 | 64 | 75.9 | 38.5 | > 100 | 97.2 | > 100 | 59.2 | > 100 | 36.1 | > 100 | 52.7 | > 100 | > 100
Cc1ccccc1S(=O)(=O)N1[C@H](c2ccc(Cl)cc2)C(C(=O)N[C@@H](Cc2ccccc2)C(N)=O)=C[C@@H]1C(C)(C)C | 7.76 | 19.8 | 3.07 | 26.7 | 5.68 | 16.6 | 6.12 | 14 | 4.87 | 2.38 | 9.5 | 7.24 | 17.4 | 6.94 | 14.3 | 7.75 | 15.1 | 2.17 | 9.67 | 31.3
